# Biological target: T1, renin (Homo sapiens, UniProt P00797)
# T1 sequence (P00797 67-406): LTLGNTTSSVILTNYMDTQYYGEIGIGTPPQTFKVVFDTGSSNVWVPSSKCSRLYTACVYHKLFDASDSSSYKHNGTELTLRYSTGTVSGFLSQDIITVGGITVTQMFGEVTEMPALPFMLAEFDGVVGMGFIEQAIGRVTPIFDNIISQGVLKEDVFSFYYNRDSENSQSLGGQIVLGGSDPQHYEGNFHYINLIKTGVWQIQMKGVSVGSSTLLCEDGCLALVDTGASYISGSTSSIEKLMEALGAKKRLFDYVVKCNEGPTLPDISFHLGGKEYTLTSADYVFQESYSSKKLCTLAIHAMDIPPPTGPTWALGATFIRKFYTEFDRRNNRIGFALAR
# Assay: in vitro renin inhibitory activity, radioimmunoassay for angiotensin I
# Assay type: biochemical
# Conditions: renin incubated two hours at 37° with substrate angiotensinogen; angiotensin I by radioimmunoassay; molar concentration causing 50% inhibition
# Experimental: The effectiveness of the aforementioned compound is determined by a test for in vitro renin inhibitory activity. This activity is determined by a standard radioimmunoassay for angiotensin I. In this assay the enzyme, renin, incubated for two hours at 37° in the presence of a substrate, angiotensinogen, generates the product, angiotensin I. Test compounds are added to the incubation mixture. Relative activity is reported as the IC50, which is the molar concentration of test compound causing a 50% inhibition of the renin activity.
row,Substance,IC50
1,DNMA--HIS--CYCLOHEXYLALA[CHOHCH2 ](CH2)2 CH(CH3)2 [Example 5],1800 nM
2,DNMA--HIS--CYCLOHEXYLALA[CHOHCH2 ]GLY--NHCH2 Ph [Example 17],3400 nM
3,DNMA--HIS--LEU[CHOHCH2 ]SO2 NHCH2 CH2 Ph [Example 1],12000 nM
4,DNMA--HIS--STA[CHOHCH2 ]CH2 Ph [Example 18],12000 nM
5,DNMA[CHOHCH2 ]LEU--STA--NHCH2 CH(CH3)CH2 CH3 [Example 20],1900 nM
6,DNMA--HIS--STA[CH2 NH]CH2 CH(CH3)CH2 CH3 [Example 10],8700 nM
7,DNMA--HIS--CYCLOHEXYLALA[CHOHCH2 ]LEU--NHCH2 CH(CH3)--CH2 CH3 [Example 15],170 nM
8,DNMA--HIS--CYCLOHEXYLALA[CHOHCHOH]CH2 OH [Example 7],280 nM
9,DNMA--HIS--CYCLOHEXYLALA[CHOHCH2 ]GLY--LEU--NHCH2 Ph [Example 11],6400 nM
10,DNMA--HIS--CYCLOHEXYLALA[CHOHCH2 ]GLY--NHCH2 CH(CH3)--CH2 CH3 [Example 16],250 nM
11,DNMA--HIS--STA[CH2 SO2 ](CH2)3 CH3 [Example 4],160 nM
12,DNMA--HIS--CYCLOHEXYLALA[CHOHCH2 ]LEU--NHCH2 Ph [Example 14],4400 nM
13,DNMA--HIS[CH2 NH]STA--NHCH2 CH(CH3)CH2 CH3 [Example 8],16000 nM

# Same assay, conditions: renin incubated two hours at 37° with substrate angiotensinogen; angiotensin I by radioimmunoassay; molar concentration causing 50% inhibition; listed as DNMAHIS STA[CHOHCH2 ]CH2 Ph (ISOMER)
row,Substance,IC50
1,DNMA--HIS--STA[CHOHCH2 ]CH2 Ph [Example 19],1400 nM
